Assay results as given in patent US11130778B2, “CD73 inhibitors” (ORIC Pharmaceuticals, Inc., priority 2019, dated 2021).

The molecules below were run against T1, CD73 (Homo sapiens, UniProt P21589) (assay: Biochemical assay of CD73 inhibition (Malachite Green)). Details: CD73 0.3208 nM, AMP 15 μM, Tris-HCl pH 7.4, Malachite Green absorbance readout; read-out: CD73_Biochem.
T1 sequence (P21589 27-549): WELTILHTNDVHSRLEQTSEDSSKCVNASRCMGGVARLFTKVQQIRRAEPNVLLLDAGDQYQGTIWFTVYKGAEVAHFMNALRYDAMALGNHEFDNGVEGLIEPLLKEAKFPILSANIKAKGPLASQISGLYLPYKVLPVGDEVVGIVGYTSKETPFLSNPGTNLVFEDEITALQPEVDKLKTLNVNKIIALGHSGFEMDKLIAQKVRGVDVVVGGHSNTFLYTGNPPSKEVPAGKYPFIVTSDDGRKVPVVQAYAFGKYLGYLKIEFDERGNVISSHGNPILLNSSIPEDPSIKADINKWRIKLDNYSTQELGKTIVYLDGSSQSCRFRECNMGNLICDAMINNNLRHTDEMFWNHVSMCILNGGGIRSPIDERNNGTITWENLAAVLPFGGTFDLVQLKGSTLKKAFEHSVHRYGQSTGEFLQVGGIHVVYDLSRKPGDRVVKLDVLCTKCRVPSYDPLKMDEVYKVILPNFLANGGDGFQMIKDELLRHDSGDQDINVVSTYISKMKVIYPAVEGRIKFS
Description: Example A1: Biochemical Assay
Assay Reaction Conditions
• Assay Volume: 70 μl • Reaction Volume: 50 μl • CD73: 0.3208 nM • AMP:15 μM • Assay Buffer: 2 5 mM Tris-HCL, pH 7.4, 0.01% Brij-35, 0.01% BSA, 5 mM MgCl2 Assay Procedure:
Made dose titration of testing compounds in assay buffer, 10 points 1/2 log titrations in duplicates starting at 100 μM.
Added 25 µl of CD73 to each well for a final concentration of […].
Incubated at RT for 15 min.
Added 25 µl of AMP to each well for a final concentration of 15 μM.
Incubated at RT for 10 min.
Added […] of Malachite Green Reagent A, incubate at RT for 10 min.
Added […] of Malachite Green Reagent B, incubate at RT for 45 min.
Read the Absorbance on Envision plate reader using excitation filter: Cy5 […].
The ability of the compounds disclosed herein to inhibit CD73 activity was quantified and the respective IC50 values were determined. Table 2 provides the biochemical IC50 values of compounds disclosed herein.
O=c1[nH]c(COCC(CO)(OC[C@H]2O[C@@H](n3ncc4c(NC5CCCC5)nc(Cl)nc43)[C@H](O)[C@@H]2O)P(=O)(O)O)no1 (stereo partly drawn) [Example 51, (2-(((2R,3S,4R,5R)-5-(6-chloro-4-(cyclopentylamino)-1H-pyrazolo[3,4-d]pyrimidin-1-yl)-3,4-dihydroxytetrahydrofuran-2-yl)methoxy)-1-hydroxy-3-((5-oxo-4,5-dihydro-1,2,4-oxadiazol-3-yl)methoxy)propan-2-yl)phosphonic acid] was tested, and the IC50 was at most 10 nM.
Work on O=P(O)(O)C(CO)(CCCc1nn[nH]n1)OC[C@H]1O[C@@H](n2ncc3c(NC4CCCC4)nc(Cl)nc32)[C@H](O)[C@@H]1O (stereo partly drawn) [Example 5, (2-(((2R,3S,4R,5R)-5-(6-chloro-4-(cyclopentylamino)-1H-pyrazolo[3,4-d]pyrimidin-1-yl)-3,4-dihydroxytetrahydrofuran-2-yl)methoxy)-1-hydroxy-5-(2H-tetrazol-5-yl)pentan-2-yl)phosphonic acid] yielded an IC50 of at most 10 nM.
With COC[C@](Cc1nn[nH]n1)(OC[C@H]1O[C@@H](n2ncc3c(NC(C)C)nc(Cl)nc32)[C@H](O)[C@@H]1O)P(=O)(O)O [Example 31, ((R)-2-(((2R,3S,4R,5R)-5-(6-chloro-4-(isopropylamino)-1H-pyrazolo[3,4-d]pyrimidin-1-yl)-3,4-dihydroxytetrahydrofuran-2-yl)methoxy)-1-methoxy-3-(2H-tetrazol-5-yl)propan-2-yl)phosphonic acid] the IC50 was at most 10 nM.
CC(C)CNc1nc(Cl)nc2c1cnn2[C@@H]1O[C@H](COC(CO)(Cc2nn[nH]n2)P(=O)(O)O)[C@@H](O)[C@H]1O (stereo partly drawn) [Example 16, (2-(((2R,3S,4R.,5R)-5-(6-chloro-4-(isobutylamino)-1H-pyrazolo[3,4-d]pyrimidin-1-yl)-3,4-dihydroxytetrahydrofuran-2-yl)methoxy)-1-hydroxy-3-(2H-tetrazol-5-yl)propan-2-yl)phosphonic acid] showed an IC50 of at most 10 nM.
COCC(Cc1nn[nH]n1)(OC[C@H]1O[C@@H](n2ncc3c(NC(C)C)nc(Cl)nc32)[C@H](O)[C@@H]1O)P(=O)(O)O (stereo partly drawn) [Example 23, (2-(((2R,3S,4R,5R)-5-(6-chloro-4-(isopropylamino)-1H-pyrazolo[3,4-d]pyrimidin-1-yl)-3,4-dihydroxytetrahydrofuran-2-yl)methoxy)-1-methoxy-3-(2H-tetrazol-5-yl)propan-2-yl)phosphonic acid] was tested, and the IC50 was at most 10 nM.
Work on COCC(CC(=O)NO)(OC[C@H]1O[C@@H](n2ncc3c(NC4CCCC4)nc(Cl)nc32)[C@H](O)[C@@H]1O)P(=O)(O)O (stereo partly drawn) [Example 11, (2-(((2R,3S,4R,5R)-5-(6-chloro-4-(cyclopentylamino)-1H-pyrazolo[3,4-d]pyrimidin-1-yl)-3,4-dihydroxytetrahydrofuran-2-yl)methoxy)-4-(hydroxyamino)-1-methoxy-4-oxobutan-2-yl)phosphonic acid] yielded an IC50 of at most 10 nM.
O=P(O)(O)C(CO)(Cc1nn[nH]n1)OC[C@H]1O[C@@H](n2ncc3c(NC4CCC4)nc(CO)nc32)[C@H](O)[C@@H]1O (stereo partly drawn) [Example 17, (2-(((2R,3S,4R,5R)-5-(4-(cyclobutylamino)-6-(hydroxymethyl)-1H-pyrazolo[3,4-d]pyrimidin-1-yl)-3,4-dihydroxytetrahydrofuran-2-yl)methoxy)-1-hydroxy-3-(2H-tetrazol-5-yl)propan-2-yl)phosphonic acid] showed an IC50 of at most 10 nM.
O=P(O)(O)[C@@](CO)(COCc1nn[nH]n1)OC[C@H]1O[C@@H](n2ncc3c(NCC4CC4)nc(Cl)nc32)[C@H](O)[C@@H]1O [Example 54, ((S)-1-((2H-tetrazol-5-yl)methoxy)-2-(((2R,3S,4R,5R)-5-(6-chloro-4-((cyclopropylmethyl)amino)-1H-pyrazolo[3,4-d]pyrimidin-1-yl)-3,4-dihydroxytetrahydrofuran-2-yl)methoxy)-3-hydroxypropan-2-yl)phosphonic acid] gave an IC50 of at most 10 nM.
Molecule O=P(O)(O)[C@@](CO)(Cc1nn[nH]n1)OC[C@H]1O[C@@H](n2ncc3c(NCC4CCC4)nc(Cl)nc32)[C@H](O)[C@@H]1O [Example 20, ((R)-2-(((2R,3S,4R,5R)-5-(6-chloro-4-((cyclobutylmethyl)amino)-1H-pyrazolo[3,4-d]pyrimidin-1-yl)-3,4-dihydroxytetrahydrofuran-2-yl)methoxy)-1-hydroxy-3-(2H-tetrazol-5-yl)propan-2-yl)phosphonic acid] has an IC50 of 10 to 100 nM.
Work on COC[C@@](COCc1nn[nH]n1)(OC[C@H]1O[C@@H](n2ncc3c(NC4CCCC4)nc(Cl)nc32)[C@H](O)[C@@H]1O)P(=O)(O)O [Example 39, ((R)-1-((2H-tetrazol-5-yl)methoxy)-2-(((2R,3S,4R,5R)-5-(6-chloro-4-(cyclopentylamino)-1H-pyrazolo[3,4-d]pyrimidin-1-yl)-3,4-dihydroxytetrahydrofuran-2-yl)methoxy)-3-methoxypropan-2-yl)phosphonic acid] yielded an IC50 of at most 10 nM.
Molecule COCC(CC(=O)NS(C)(=O)=O)(OC[C@H]1O[C@@H](n2ncc3c(NC4CCCC4)nc(Cl)nc32)[C@H](O)[C@@H]1O)P(=O)(O)O (stereo partly drawn) [Example 12, (2-(((2R,3S,4R,5R)-5-(6-chloro-4-(cyclopentylamino)-1H-pyrazolo[3,4-d]pyrimidin-1-yl)-3,4-dihydroxytetrahydrofuran-2-yl)methoxy)-1-methoxy-4-(methylsulfonamido)-4-oxobutan-2-yl)phosphonic acid] has an IC50 of at most 10 nM.
With COC[C@](COCc1nn[nH]n1)(OC[C@H]1O[C@@H](n2ncc3c(NC4CCCC4)nc(Cl)nc32)[C@H](O)[C@@H]1O)P(=O)(O)O [Example 38, ((S)-1-((2H-tetrazol-5-yl)methoxy)-2-(((2R,3S,4R,5R)-5-(6-chloro-4-(cyclopentamino)-1H-pyrazolo[3,4-d]pyrimidin-1-yl)-3,4-dihydroxytetrahydrofuran-2-yl)methoxy)-3-methoxypropan-2-yl)phosphonic acid] the IC50 was at most 10 nM.
For CC(Cc1nn[nH]n1)(OC[C@H]1O[C@@H](n2ncc3c(NC4CCCC4)nc(Cl)nc32)[C@H](O)[C@@H]1O)P(=O)(O)O (stereo partly drawn) [Example 43, (2-(((2R,3S,4R,5R)-5-(6-chloro-4-(cyclopentylamino)-1H-pyrazolo[3,4-d]pyrimidin-1-yl)-3,4-dihydroxytetrahydrofuran-2-yl)methoxy)-1-(2H-tetrazol-5-yl)propan-2-yl)phosphonic acid], the IC50 was at most 10 nM.
In the case of O=P(O)(O)C(CO)(COCc1nn[nH]n1)OC[C@H]1O[C@@H](n2ncc3c(N[C@@H]4CCc5ccccc54)nc(Cl)nc32)[C@H](O)[C@@H]1O (stereo partly drawn) [Example 60, (1-((2H-tetrazol-5-yl)methoxy)-2-(((2R,3S,4R,5R)-5-(6-chloro-4-(((R)-2,3-dihydro-1H-inden-1-yl)amino)-1H-pyrazolo[3,4-d]pyrimidin-1-yl)-3,4-dihydroxytetrahydrofuran-2-yl)methoxy)-3-hydroxypropan-2-yl)phosphonic acid], the IC50 is reported as at most 10 nM.
O=P(O)(O)[C@@](CO)(COCc1nn[nH]n1)OC[C@H]1O[C@@H](n2ncc3c(NC4CCCC4)nc(Cl)nc32)[C@H](O)[C@@H]1O [Example 25, ((S)-1-((2H-tetrazol-5-yl)methoxy)-2-(((2R,3S,4R,5R)-5-(6-chloro-4-(cyclopentylamino)-1H-pyrazolo[3,4-d]pyrimidin-1-yl)-3,4-dihydroxytetrahydrofuran-2-yl)methoxy)-3-hydroxypropan-2-yl)phosphonic acid] was tested, and the IC50 was at most 10 nM.
CC(C)CNc1nc(Cl)nc2c1cnn2[C@@H]1O[C@H](CO[C@@](CO)(Cc2nn[nH]n2)P(=O)(O)O)[C@@H](O)[C@H]1O [Example 32, ((S)-2-(((2R,3S,4R,5R)-5-(6-chloro-4-(isobutylamino)-1H-pyrazolo[3,4-d]pyrimidin-1-yl)-3,4-dihydroxytetrahydrofuran-2-yl)methoxy)-1-hydroxy-3-(2H-tetrazol-5-yl)propan-2-yl)phosphonic acid] showed an IC50 of 10 to 100 nM.
Work on COC[C@](OC[C@H]1O[C@@H](n2ncc3c(NC4CCCC4)nc(Cl)nc32)[C@H](O)[C@@H]1O)(C(=O)NO)P(=O)(O)O [Example 36, ((R)-2-(((2R,3S,4R,5R)-5-(6-chloro-4-(cyclopentylamino)-1H-pyrazolo[3,4-d]pyrimidin-1-yl)-3,4-dihydroxytetrahydrofuran-2-yl)methoxy)-1-(hydroxyamino)-3-methoxy-1-oxopropan-2-yl)phosphonic acid] yielded an IC50 of at most 10 nM.
O=P(O)(O)[C@](CO)(Cc1nn[nH]n1)OC[C@H]1O[C@@H](n2ncc3c(N[C@@H]4CCc5ccccc54)nc(Cl)nc32)[C@H](O)[C@@H]1O [Example 47] showed an IC50 of 10 to 100 nM.
